Measured values taken from patent US20160256504A1, “[…] COMPOSITION CONTAINING […] MUSHROOM [[…] EDODES] […] CULTURE AND NATTO BACTERIA [BACILLUS SUBTILIS NATTO] CULTURE” (HK Biotech Co., LTD., priority 2014, published 2016).

Experiments:
[1] = system: plasma plasminogen activator inhibitor-1 (PAI-1); experiment: Plasma PAI-1 content in SHR after 4-week treatment; type: in vivo, rat
blood homocysteine = settings: rats, hyperhomocysteinemia induced by guanidinoacetic acid injection, EA injected; cited from earlier work
NO = NO content in NAME-induced hypertensive rat model; type: in vivo; settings: NAME-induced hypertensive rats
Method: (§1) The biochemical markers relating to the blood pressure were measured, by collecting blood and organs of the rats used in the experimental examples 1 (non-genetic NAME-induced hypertension) and 3 (4-week-treatments on SHR). […] And from the rats of the experimental example 3, ACE activity and the activity of plasma plasminogen activator inhibitor-1 (PAI-1) of the plasma and the livers were measured. […] The following TABLE 5 is describing NO content and NOS activity of shiitake mushroom mycelium culture and natto bacteria culture mixture in the NAME-induced hypertensive rat model.

NOS = NOS activity in NAME-induced hypertensive rat model; type: in vivo; settings: NAME-induced hypertensive rats
Method: as §1

C[C@H](CS)C(=O)N1CCC[C@H]1C(=O)O [CP, captopril]
Plasma PAI-1 ([1]; 0 week): 113 pg/mL | Plasma PAI-1 ([1]; 4 weeks): 127 pg/mL

Nc1ncnc2c1ncn2C[C@@H](O)[C@@H](O)C(=O)O [EA, eritadenine]
blood homocysteine (blood homocysteine): reduced

NNc1nncc2ccccc12 [hydralazine]
NO Lung (NO; 0 week): 10 nM/ml | NO Lung (NO; 4 weeks): 7 nM/ml | NO Plasma (NO; 0 week): 21 nM/ml | NO Plasma (NO; 4 weeks): 20 nM/ml | NOS Aorta (NOS; 0 week): 0.80 NO pmle/mg protein/min | NOS Aorta (NOS; 4 weeks): 1.08 NO pmle/mg protein/min | NOS Plasma (NOS; 0 week): 6.0 NO umole/L | NOS Plasma (NOS; 4 weeks): 8.5 NO umole/L
